In patent US20050209446A1, “Novel 15-membered cyclic azalide, novel 16-membered cyclic diazalide derivative, and process for producing these” (Meiji Seika Kaisha Ltd., priority 2002, published 2005):
Values after ≈ are worked out from the molar mass of the structure shown.

Experiments:
[1] = tested on: Haemophilus influenzae 9334; assay: Antibacterial activity test in vitro (agar dilution MIC); format: cell-based; settings: blood agar medium, 37° C., about 20 hours
Procedure: (§1) Antibacterial activities in vitro of the compounds of Examples 19 and 25 were measured as follows by referring to the standard method of Japanese Society of Chemotherapy (Chemotherapy, Vol. 29, p. 76-79, 1981). Antibacterial activities of miokamycin (MOM) was measured in the same manner for comparison.
(§2) For each of the solutions of the test drugs, which were dissolved in methanol so as to be 6,400 μg/ml, serial two-fold diluents with methanol were prepared. Each 200 μl of the test drug solutions prepared was placed in a laboratory dish, and the agar medium for sensitivity measurement, which was added with 5% equine sterile defibrinated blood, 15 μg/ml, β-Nicotinamide-adenine dinucleotide and 2.5 μg/ml hemin, was dispensed in 10 ml aliquots into the dish and then mixed with the solution for dilution to prepare the agar plate containing the test drug. A given amount of the liquid medium for the sensitivity measurement, which was prepared so as to contain a given amount of test bacterium was inoculated on the agar plate containing the test drug by a microplanter (Sakuma Seisakusyo, Co. Ltd.), and after the inoculation, the plate was incubated at 37° C. for about 20 hours. After the incubation, the existence of growth of the test bacterium was visually observed, and a minimum concentration at which no growth was observed was defined as a minimum inhibitory concentration of a test drug (MIC) against each of test bacteria.

[2] = tested on: Micrococcus luteus ATCC9341; assay: as above; format: cell-based; settings: blood agar medium, 37° C., about 20 hours
Procedure: as §1, §2

[3] = tested on: Moraxella catarrhalis W-0506; assay: as above; format: cell-based; settings: 37° C., about 20 hours; for Minimum inhibitory concentration (MIC): blood agar medium
Procedure: as §1, §2

[4] = tested on: Staphylococcus aureus Smith; assay: as above; format: cell-based; settings: blood agar medium, 37° C., about 20 hours
Procedure: as §1, §2

[5] = tested on: Streptococcus pneumoniae DP1 TypeI; assay: as above; format: cell-based; settings: blood agar medium, 37° C., about 20 hours
Procedure: as §1, §2

[6] = tested on: Streptococcus pneumoniae IP692; assay: as above; format: cell-based; settings: blood agar medium, 37° C., about 20 hours
Procedure: as §1, §2

[7] = format: in vitro ADME, mouse
Procedure: Antibacterial activities of the compound of Example 19 after treatment with mouse liver homogenate were examined as follows. Antibacterial activities of MOM were examined in the same manner for comparison. The liver was collected from a mouse, and added with a phosphate buffer to prepare 5% homogenate. A 50 μl of the test drug solution, dissolved in methanol so as to be 150 μg/ml, was added to 1.45 ml of the mouse liver homogenate, and the mixture was allowed to react at 37° C. Each portion of the reaction mixture was collected at the beginning of the reaction, and after 10, 20 and 40 minutes, and added with a given volume of an acetonitrile solution to prepare each bioassay sample for the measurement of a concentration of the test drug. […] After the incubation, a diameter of growth inhibitory circle of Micrococcus luteus ATCC9341 observed around the paper disc was measured with a digital slide calipers. […] On the basis of a calibration curve which was drawn from the concentrations and the diameters of growth inhibitory circles of the standard solutions, residual activities of the samples at the above sampling times were calculated, and compared with antibacterial activities at the beginning of the reaction.

test bacteria = assay: Antibacterial activity test in vitro, overall statement; format: cell-based; settings: summary of Table 1
Procedure: as §1
as §2, with “After the incubation, the existence of growth of the test bacterium was visually observed, and a minimum concentration at which no growth was observed was defined as a minimum inhibitory concentration of a test drug (MIC) against each of test bacteria.” left out

[8] = read-out: Minimum inhibitory concentration (MIC)

Row | SMILES | MIC [1, 8] [µg/mL] | MIC [2, 8] [µg/mL] | MIC ([3]; W0506, blood agar medium, read-out: Minimum inhibitory concentration (MIC)) [µg/mL] | MIC [4, 8] [µg/mL] | MIC ([5]; DP1TYPEI, read-out: Minimum inhibitory concentration (MIC)) [µg/mL] | MIC [6, 8] [µg/mL] | residual antibacterial activities after treatment with mouse liver homogenate, compared with the start of the reaction [7] | Minimum inhibitory concentration (MIC) [1] [µg/mL] | Minimum inhibitory concentration (MIC) [2] [µg/mL] | Minimum inhibitory concentration (MIC) [3] [µg/mL] | Minimum inhibitory concentration (MIC) [4] [µg/mL] | Minimum inhibitory concentration (MIC) [5] [µg/mL] | Minimum inhibitory concentration (MIC) [6] [µg/mL] | antibacterial activities compared with MOM (test bacteria)
1 | CCC(=O)O[C@@H]1CC(=O)O[C@H](C)C/C=C/C=C/[C@H](OC(C)=O)[C@H](C)C[C@H](CC=O)[C@H](O[C@@H]2O[C@H](C)[C@@H](O[C@H]3C[C@@](C)(OC(C)=O)[C@@H](OC(=O)CC)[C@H](C)O3)[C@H](N(C)C)[C@H]2O)[C@H]1OC [MOM, miokamycin, reference compound] | 4 (≈ 4.45 µM) | 0.13 (≈ 0.145 µM) | 1 (≈ 1.11 µM) | 1 (≈ 1.11 µM) | 0.25 (≈ 0.278 µM) | 0.25 (≈ 0.278 µM) | apparent decreases in antibacterial activities |  |  |  |  |  |  | 
2 | CCC(=O)O[C@@H]1CC(=O)O[C@H](C)CCN(CCCCc2ccccc2)C[C@H](O)[C@H](C)C[C@H](CC=O)[C@H](O[C@@H]2O[C@H](C)[C@@H](O[C@H]3C[C@@](C)(OC(C)=O)[C@@H](OC(=O)CC)[C@H](C)O3)[C@H](N(C)C)[C@H]2O)[C@H]1OC [Example 19] |  |  |  |  |  |  | no decrease in antibacterial activities | 2 (≈ 2.04 µM) | 0.03 (≈ 0.0306 µM) | 0.25 (≈ 0.255 µM) | 0.5 (≈ 0.511 µM) | 0.06 (≈ 0.0613 µM) | 0.13 (≈ 0.133 µM) | higher antibacterial activities than MOM
3 | CCC(=O)O[C@@H]1CC(=O)O[C@H](C)CCN(CCCc2ccnc3ccccc23)C[C@H](O)[C@H](C)C[C@H](CC=O)[C@H](O[C@@H]2O[C@H](C)[C@@H](O[C@H]3C[C@@](C)(OC(C)=O)[C@@H](OC(=O)CC)[C@H](C)O3)[C@H](N(C)C)[C@H]2O)[C@H]1OC [Example 25, (−)-(3R,4S,5S,6R,8R,9R,14R)-5-[4-O-(3-O-acetyl-2,6-dideoxy-3-C-methyl-4-O-propionyl-α-L-ribo-hexopyranosyl)-3,6-dideoxy-3-dimethylamino-8-D-glucopyranosyl]-6-formylmethyl-9-hydroxy-4-methoxy-8-methyl-3-propionyloxy-11-(3-(quinolin-4-yl)propyl)-11-aza-pentadecan-14-olide] |  |  |  |  |  |  |  | 1 (≈ 0.984 µM) | 0.03 (≈ 0.0295 µM) | 0.25 (≈ 0.246 µM) | 0.5 (≈ 0.492 µM) | 0.06 (≈ 0.059 µM) | 0.06 (≈ 0.059 µM) | higher antibacterial activities than MOM
